Data reported in US20030134264A1, “Method of preventing darkening of skin or inhibiting melanization of melenin monomer and polymerization inhibitor of biological dihydroxyindole compound” (SHISEIDO COMPANY, LTD., priority 2001, published 2003).

Assay: Inhibition of melanization of DHICA by ultraviolet rays (absorbance at 405 nm, microplate)
Conditions: FL-20BLB fluorescent lamp, long wavelength UV, absorbance 405 nm
Method: DHICA can be synthesized by a known method. 0.01 to 1.0 mg/ml of DHICA or its sodium salt is dissolved in water or a buffer such as phosphate buffer and 100 to 200 μl amounts distributed into microplate wells. A fluorescent lamp or solar simulator or monochrometer is used to irradiate this with ultraviolet rays for 10 minutes to 3 hours, then the absorbance at 405 nm is measured by a microplate reader to evaluate the amount of black-brown melanin.
0.01 to 1.0 mg/ml of DHICA or its sodium salt is dissolved in water or a buffer such as a phosphate buffer and 100 to 200 μl amounts distributed into microplate wells. Compounds or plant extracts prepared at various concentrations are added in 1 to 100 μl amounts or before addition a fluorescent lamp or solar simulator or monochrometer is used to irradiate this with ultraviolet rays for 10 minutes to 3 hours, then the absorbance of 405 nm is measured by a microplate reader to evaluate the extent of black-brown melanin and evaluate the effect of the compound or plant extract.
The action of an inhibitor containing vitamin C and its derivatives as effective ingredients in inhibiting melanization of DHICA due to ultraviolet rays was evaluated by the following effect of inhibition of melanization of DHICA due to ultraviolet rays.
(§1) 0.01 to 1.0 mg/ml of DHICA or its sodium salt is dissolved in water and 100 μl amounts distributed into microplate wells. 100 μl of ascorbic acid or its derivative adjusted to various concentrations was added and an FL-20BLB fluorescent lamp used to irradiate long wavelength ultraviolet rays. The absorbance at 405 nm was measured by a microplate reader to evaluate the amount of black-brown melanin and evaluate the effect of the compound.
as §1, with “The action of an inhibitor containing 3-O-ethyl ascorbic acid as effective ingredients in inhibiting melanization of DHICA due to ultraviolet rays was evaluated by the following effect of inhibition of melanization of DHICA due to ultraviolet rays. 0.01” for “0.01”, “the extent” for “the amount”

SMILES | Rate of inhibition of UV-introduced melanization of DHICA (%) (sample concentration 0.01%) | Rate of suppression of UV-induced melanization of DHICA (%) (sample concentration 0.01%) | Rate of inhibition of UV-introduced melanization of DHICA (%) (sample concentration 0.1%) | Rate of suppression of UV-induced melanization of DHICA (%) (sample concentration 0.1%)
CCOC1=C(O)C(=O)O[C@@H]1[C@@H](O)CO [3-O-ethyl ascorbic acid] | 40% | 40% | 80% | 80%
O=C1O[C@H]([C@@H](O)CO)C(O)=C1O[C@H]1O[C@H](CO)[C@@H](O)[C@H](O)[C@H]1O [AA-2G, Ascorbate-2-O-α-glucoside] | – | – | 20% | 20%
O=C1O[C@H]([C@@H](O)CO)C([O-])=C1OP(=O)([O-])[O-].O=C1O[C@H]([C@@H](O)CO)C([O-])=C1OP(=O)([O-])[O-].[Mg+2].[Mg+2].[Mg+2] [APM, Magnesium ascorbate phosphate ester] | – | – | 20% | –
O=C1O[C@H]([C@@H](O)CO)C(O)=C1O [Ascorbic acid] | – | – | 70% | 70%
